# The NIST ThermoML archive (doi:10.1021/je4000857)
# “And” between values parts separate entries of the source, which are not always exact repeats. Equal values may be shown once. ± gives the expanded uncertainty stated by the source.
# Conditions: Liquid
vapor or sublimation pressure (253.3 K),vapor or sublimation pressure (258.11 K),vapor or sublimation pressure (263.23 K),vapor or sublimation pressure (264.05 K),vapor or sublimation pressure (268.17 K),vapor or sublimation pressure (271.05 K),vapor or sublimation pressure (278.05 K),vapor or sublimation pressure (282.74 K),vapor or sublimation pressure (292.81 K),vapor or sublimation pressure (303.04 K),vapor or sublimation pressure (308.04 K),vapor or sublimation pressure (312.78 K),vapor or sublimation pressure (322.96 K),Compound
194 ± 3 kPa,238 ± 3 kPa,287 ± 3 kPa,298 ± 4 kPa and 297 ± 4 kPa,343 ± 4 kPa,383 ± 4 kPa,483 ± 5 kPa,553 ± 6 kPa,743 ± 7 kPa,995 ± 10 kPa,1124 ± 11 kPa,1256 ± 12 kPa,1604 ± 16 kPa,FC(F)(F)C(F)(F)C(F)(F)F [octafluoropropane]
–,–,–,1862 ± 36 kPa,–,2275 ± 43 kPa,2700 ± 51 kPa,–,–,4600 ± 87 kPa,–,–,–,CC [ethane]
